Source: paper PMC10746103, “Development of a HPLC-MS/MS Method to Assess the Pharmacokinetics and Tumour Distribution of the Dimethylarginine Dimethylaminohydrolase 1 Inhibitors ZST316 and L-257 in a Xenograft Model of Triple-Negative Breast Cancer in Mice” (Molecules, 2023)
pKi: −log10 of the molar value. Several values for one entry are separate records, joined by “and”; a condition that tells them apart may be missing. Equal entries are not always repeated. Entries after “also recorded” stand apart in the source; their conditions may differ. Where two headings read alike, the source gives them in different places.

Experiments:
[1] = Stability of ZST316 and L-257 in frozen plasma; type: in vitro ADME, mice; settings: for Mean found value, Stability −20 °C / Accuracy (%), Stability −20 °C: plasma QC, one month at −20 °C; for Mean found value, Stability −20 °C: n=3; for Accuracy (%), Stability −20 °C: percent of nominal
Procedure: The stability of ZST316 and L-257 in plasma was assessed by analysing QC samples containing both compounds after prolonged storage in the same conditions of the study samples.
Stability was determined by analysing 3 QCs per concentration level immediately after the preparation, and 3 QCs per concentration level after one month of storage at −20 °C. The analytes were considered stable at each QC concentration when the freshly prepared samples and the stability test samples differed by no more than 15% from the nominal concentrations.

[2] = Plasma pharmacokinetics of ZST316 and L-257 after intraperitoneal ZST316 in MDA-MB-231 xenograft mice (HPLC-MS/MS); type: in vivo, SCID mice
Procedure: (§1) Six-week-old female severe combined immunodeficiency disease (SCID) mice (n = 24; Charles River Laboratories Italia S.r.L., Calco, Lecco, Italy), were housed under rigorous standards and handled under pathogen-free conditions in the Animal Care Facilities of the Mario Negri Institute for Pharmacological Research (Milan, Italy).
(§2) Two ×10^6 (in 10 μL) MDA-MB-231 TNBC cells were transplanted into the mammary fat pad. Tumour growth was regularly monitored with a calliper and treatment with ZST316 was given when the tumour volume reached 400–500 mm^3. Mice received either a single dose (acute treatment) or a daily dose of ZST316 30 mg/Kg intraperitoneally for five days (chronic treatment).
(§3) Plasma and tumour tissue (n = 3 mice/each time point) were sampled at 1, 8 and 24 h after treatment (on day 5 for the chronic treatment). To collect plasma, mice were anesthetized by isoflurane, the blood was drained from the retro-orbital plexus into heparinised tubes and centrifuged for 10 min at 4000× g at 4 °C. Tumours were collected and immediately frozen. Plasma and tumour samples were stored at −20 °C until analysis.
To assay ZST316 and L-257, 10 μL of IS (ZST152 WS: 500 ng/mL) were added to 100 μL of study plasma samples, standards, and QCs in a polypropylene tube. The samples were then added with 10 μL of NH4COOH 50 mM, mixed and added with 400 μL CH3OH:0.1% HCOOH, vortex mixed again and centrifuged at 13,200 rpm for 10 min at 4 °C. The supernatant was transferred to a 1.5 mL Eppendorf tube, dried under nitrogen flow and reconstituted with 100 μL of mobile phase (MP) A:B (1:1, v/v). Finally, the samples were centrifuged at 13,200 rpm for 10 min at 4 °C and the supernatant transferred into vials for HPLC-MS/MS analysis.
(§4) Reversed-phase chromatography was performed under gradient conditions with separation on a HILIC column, C18, 3 μm, 100 A, 2.1 × 150 mm, Waters (Milford, MA, USA), coupled with a 3 μm, 3.9 × 5.0 mm guard column of the same material at the flow rate of 0.2 mL/min. Gradient features were: 10% mobile phase (MP) A (NH4HCO2 10 mM, 10% CH3CN, 0.1% HCOOH) and 90% MP B (CH3CN, 0.1% HCOOH) as initial constant condition; then to 90% MP A in 6 min and constant condition for 1.5 min. Return to start condition in 0.5 min and conditioning for 5.5 min. Total run time: 13.5 min. Analyte detection and quantification were performed using tandem mass spectrometry (MS/MS) operating in positive ionization mode as previously reported for ZST316 and ZST152 [31].

[3] = Tumour distribution of ZST316 and L-257 after intraperitoneal ZST316 in MDA-MB-231 TNBC xenograft (HPLC-MS/MS); type: in vivo, SCID mice; settings: for time intra-tumour concentration remained above the IC50 and Ki values for DDAH1 inhibition: estimated
Procedure: as §1, §2, §3
Control MDA-MB-231 TNBC cell tumours were homogenized with NH4COOH 50 mM (1:4, w:v). The homogenate (90 μL) was spiked with 5 μL of ZST316 and L-257 working solutions prepared in the range of 100–10,000 ng/mL generating seven tumour calibration standards in the range 25–5000 ng/g. The calibration curve included also a blank and a zero blank standard plasma sample (processed with IS). To prepare QC samples, 90 μL of the homogenate was mixed with an appropriate amount of QC working solutions to obtain QC plasma samples at the nominal concentration of 75, 375, and 1250 ng/g.
The procedure was similar to that described for plasma in Section 3.3.2.
as §4

[4] = Tolerability of chronic intraperitoneal ZST316 treatment; type: in vivo; settings: ZST316 30 mg/Kg i.p. daily for five days
Procedure: as §2

[5] = design: method as in PMID 35164277; settings: four-week-old FVB mice; oral, intravenous and intraperitoneal administration; cited from earlier work
DDAH1 = settings: cited from earlier work
[6] = acute (single dose) ZST316 30 mg/Kg i.p., 1 h
[7] = acute ZST316 30 mg/Kg i.p., 1 h, 30 mg/kg
[8] = acute ZST316 30 mg/Kg i.p., 8 h, 30 mg/kg
[9] = acute ZST316 30 mg/Kg i.p., 8 h, n=3, 30 mg/kg
[10] = acute ZST316 30 mg/Kg i.p., 24 h, 30 mg/kg
[11] = acute ZST316 30 mg/Kg i.p., approximately estimated due to limited time points
[12] = chronic (five-day) ZST316 30 mg/Kg i.p. daily, 1 h
[13] = chronic (five-day) ZST316 30 mg/Kg i.p. daily, 24 h
[14] = chronic ZST316 30 mg/Kg i.p. daily
[15] = chronic ZST316 30 mg/Kg i.p. daily, day 5, 1 h, 30 mg/kg
[16] = chronic ZST316 30 mg/Kg i.p. daily, day 5, 8 h, 30 mg/kg
[17] = chronic ZST316 30 mg/Kg i.p. daily, day 5, 8 h, n=3, 30 mg/kg
[18] = chronic ZST316 30 mg/Kg i.p. daily, day 5, 24 h, 30 mg/kg
[19] = chronic ZST316 30 mg/Kg i.p. daily, approximately estimated due to limited time points
[20] = range over acute and chronic treatment

## COCCNC(N)=NCCC[C@H](N)C(=O)NS(C)(=O)=O [ZST316]
[1]; at least one month at −20 °C
  stability in frozen plasma: stable
[1]; actual value 15.00 ng/mL
  Mean found value, Stability −20 °C: 14.3 ng/mL
  Accuracy (%), Stability −20 °C: 95.4%
[1]; actual value 75.00 ng/mL
  Mean found value, Stability −20 °C: 72.4 ng/mL
  Accuracy (%), Stability −20 °C: 96.5%
[1]; actual value 250.00 ng/mL
  Mean found value, Stability −20 °C: 240.0 ng/mL
  Accuracy (%), Stability −20 °C: 96.0%
[2]; ZST316 30 mg/Kg i.p. daily for five days, day 5 vs day 1, 30 mg/kg
  accumulation in plasma and tumour during chronic treatment: without accumulation; also recorded: No accumulation
[2]; [6]
  mean plasma concentration: 2.79 µg/mL
[2]; acute (single dose) ZST316 30 mg/Kg i.p., 24 h, 30 mg/kg
  mean plasma concentration: 0.05 µg/mL and 0.04 µg/mL
[2]; acute ZST316 30 mg/Kg i.p.
  Cmax: 9.03 µM
  Cmax plasma: 2.79 µg/mL
  Plasma AUC1–24 h: 0.050
[2]; acute ZST316 30 mg/Kg i.p. (day 1)
  Plasma AUC1–24 h: 15.3 µg·h/mL
[2]; [7]
  plasma concentration, individual mice: 3000 ng/mL and 2150 ng/mL and 3210 ng/mL and 9.70 µM and 6.95 µM and 10.38 µM
[2]; [8]
  plasma concentration, individual mice: 162 ng/mL and 147 ng/mL and 0.38 µM and 0.52 µM and 0.48 µM and 119 ng/mL
[2]; [9]
  mean plasma concentration: 143 ng/mL and 0.46 μM
[2]; [10]
  plasma concentration, individual mice: 64.2 ng/mL and 53.7 ng/mL and 25 ng/mL and 0.21 µM and 0.17 µM and 0.08 µM
[2]; [11]
  half-life plasma: 4.4 h
[2]; [12]
  mean plasma concentration: 2.22 µg/mL
[2]; [13]
  mean plasma concentration: 0.12 µg/mL
[2]; [14]
  Cmax: 7.18 µM
  Cmax plasma: 2.22 µg/mL
  Plasma AUC1–24 h: 0.040
[2]; chronic ZST316 30 mg/Kg i.p. daily (day 5)
  Plasma AUC1–24 h: 12.4 µg·h/mL
[2]; [15]
  plasma concentration, individual mice: 2440 ng/mL and 2030 ng/mL and 2200 ng/mL and 7.89 µM and 6.57 µM and 7.12 µM
[2]; [16]
  plasma concentration, individual mice: 81.7 ng/mL and 54.7 ng/mL and 41.8 ng/mL and 0.26 µM and 0.18 µM and 0.14 µM
[2]; [17]
  mean plasma concentration: 59.4 ng/mL and 0.19 μM
[2]; [18]
  plasma concentration, individual mice: 101 ng/mL and 173 ng/mL and 86.3 ng/mL and 0.33 µM and 0.56 µM and 0.28 µM
[2]; [19]
  half-life plasma: 7.1 h
[2]; [20]
  half-life plasma: 4.4 to 7.1 h
[2]; representative chromatogram, sample taken at 1 h after acute treatment (b8)
  measured concentration in unknown study plasma sample (Figure 2): 2200 ng/mL
[3]; [6]
  mean intra-tumour concentration: 2.0 µg/g
[3]; acute (single dose) ZST316 30 mg/Kg i.p., 24 h
  mean intra-tumour concentration: 0.04 µg/g
[3]; acute ZST316 30 mg/Kg i.p.
  tumour AUC: 11.4 µg·h/g
[3]; acute ZST316 30 mg/Kg i.p., 30 mg/kg
  Cmax tumour: 2.00 μg/g and 6.47 μM
[3]; [7]
  tumour concentration, individual mice: 2470 ng/g and 1210 ng/g and 2320 ng/g and 7.99 µM and 3.91 µM and 7.50 µM
[3]; [8]
  tumour concentration, individual mice: 109 ng/g and 173 ng/g and 0.48 µM and 0.35 µM and 0.56 µM and 149 ng/g
[3]; [9]
  mean tumour concentration: 144 ng/g and 0.46 μM
[3]; [10]
  tumour concentration, individual mice: 37.3 ng/g and 32.2 ng/g and 49.0 ng/g and 0.12 µM and 0.10 µM and 0.16 µM
[3]; [11]
  half-life tumour: 4.5 h
[3]; after acute ZST316 treatment
  time intra-tumour concentration remained above the IC50 and Ki values for DDAH1 inhibition: 15.5 h
[3]; after chronic ZST316 treatment
  time intra-tumour concentration remained above the IC50 and Ki values for DDAH1 inhibition: 16.5 h
[3]; [12]
  mean intra-tumour concentration: 2.09 µg/g
[3]; [13]
  mean intra-tumour concentration: 0.06 µg/g
[3]; [14]
  tumour AUC: 11.8 µg·h/g
[3]; [15]
  tumour concentration, individual mice: 2490 ng/g and 1750 ng/g and 2020 ng/g and 8.05 µM and 5.66 µM and 6.53 µM
[3]; [16]
  tumour concentration, individual mice: 110 ng/g and 146 ng/g and 0.39 µM and 0.36 µM and 0.47 µM and 120 ng/g
[3]; [17]
  mean tumour concentration: 125 ng/g and 0.41 μM
[3]; chronic ZST316 30 mg/Kg i.p. daily, day 5, 24 h
  mean tumour concentration: 57.0 ng/g
[3]; [18]
  tumour concentration, individual mice: 37.8 ng/g and 108 ng/g and 25.2 ng/g and 0.12 µM and 0.35 µM and 0.08 µM
[3]; chronic ZST316 30 mg/Kg i.p. daily, day 5, 24 h, n=3
  mean tumour concentration: 0.18 µM
[3]; chronic ZST316 30 mg/Kg i.p. daily, 30 mg/kg
  Cmax tumour: 2.09 μg/g and 6.76 μM
[3]; [19]
  half-life tumour: 5.0 h
[3]; [20]
  half-life tumour: 4.5 to 5.0 h
[3]; representative chromatogram, sample taken at 24 h after acute treatment (b8)
  measured concentration in unknown study tumour sample (Figure 3): 37.3 ng/g
[4]
  tolerability / signs of toxicity: well tolerated, and no signs of toxicity were recorded
[5]
  tolerability: excellent tolerability
DDAH1; equivalent of 261 nM, personal data
  Ki expressed as concentration: 0.0803 mg/L
DDAH1; original value
  pKi: 6.00
DDAH1; revised using a more performant assay, personal data
  pKi: 6.58
